According to PubChem BioAssay (NCI):
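Where inhibition never reached the appropriate level, the endpoint shown equals the highest concentration tested. Otherwise, values were interpolated linearly from a five-concentration, 48-hour dose response in 96-well plates. Definition used: TGI = concentration required for complete inhibition of growth.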

test system: SK-MEL-5 melanoma; test: growth of human tumour cells (NCI), 48 h

`Cc1sc2nc(N(C)C)oc(=O)c2c1C` and `N=c1c2ccccc2nc2oc3cc([N+](=O)[O-])ccc3n12` cannot be ordered by TGI: greater than 100 µM for the first, greater than 100 µM for the second.

First: CC(C)OC(=O)c1ccc(NCC2=CC(=O)C=CC2=O)cc1
Second: CC(C)C[C@H]1[C@@H](OCc2ccccc2)COS(=O)(=O)N1[C@H](C)c1ccccc1
The TGI of the first is lower: 32.2 µM for the first, greater than 64.4 µM for the second.

`O=C1c2ccccc2-c2nnc(-c3ccc([N+](=O)[O-])cc3)cc21` and `Cn1c(-c2cccs2)cc(-c2cccs2)c1-c1cccs1` cannot be ordered by TGI: greater than 10 µM for the first, greater than 100 µM for the second.

Compared with `CCOC(=O)CC[C@H](N)C(=O)N[C@@H](Cc1ccc(N(CCCl)CCCl)cc1)C(=O)OCC`, `O=C(CSc1ncccn1)N/N=C/c1ccccc1OCc1ccccc1` is 9.1-fold higher in TGI: 3.13 µM for the first, 28.4 µM for the second.

test system: MCF7 breast; test: growth of human tumour cells (NCI), 48 h

`Cc1sc2nc(N(C)C)oc(=O)c2c1C` and `N=c1c2ccccc2nc2oc3cc([N+](=O)[O-])ccc3n12` cannot be ordered by TGI: greater than 100 µM for the first, greater than 100 µM for the second.

Compared with `CC(C)OC(=O)c1ccc(NCC2=CC(=O)C=CC2=O)cc1`, `CC(C)C[C@H]1[C@@H](OCc2ccccc2)COS(=O)(=O)N1[C@H](C)c1ccccc1` is higher in TGI: 27.3 µM for the first, greater than 100 µM for the second.

`O=C1c2ccccc2-c2nnc(-c3ccc([N+](=O)[O-])cc3)cc21` and `Cn1c(-c2cccs2)cc(-c2cccs2)c1-c1cccs1` cannot be ordered by TGI: greater than 10 µM for the first, greater than 100 µM for the second.

First: CCOC(=O)CC[C@H](N)C(=O)N[C@@H](Cc1ccc(N(CCCl)CCCl)cc1)C(=O)OCC
Second: O=C(CSc1ncccn1)N/N=C/c1ccccc1OCc1ccccc1
The TGI of the first is 2.8-fold lower: 15.5 µM for the first, 43.9 µM for the second.

test system: HCT-15 colon; test: growth of human tumour cells (NCI), 48 h

`Cc1sc2nc(N(C)C)oc(=O)c2c1C` and `N=c1c2ccccc2nc2oc3cc([N+](=O)[O-])ccc3n12` cannot be ordered by TGI: greater than 100 µM for the first, greater than 100 µM for the second.

Going from `CC(C)OC(=O)c1ccc(NCC2=CC(=O)C=CC2=O)cc1` to `CC(C)C[C@H]1[C@@H](OCc2ccccc2)COS(=O)(=O)N1[C@H](C)c1ccccc1`, the TGI rises from 25.5 µM to greater than 100 µM.

`O=C1c2ccccc2-c2nnc(-c3ccc([N+](=O)[O-])cc3)cc21` and `Cn1c(-c2cccs2)cc(-c2cccs2)c1-c1cccs1` cannot be ordered by TGI: greater than 10 µM for the first, greater than 100 µM for the second.

First: CCOC(=O)CC[C@H](N)C(=O)N[C@@H](Cc1ccc(N(CCCl)CCCl)cc1)C(=O)OCC
Second: O=C(CSc1ncccn1)N/N=C/c1ccccc1OCc1ccccc1
The TGI of the first is 17-fold lower: 3.86 µM for the first, 65.1 µM for the second.

test system: OVCAR-4 ovarian; test: growth of human tumour cells (NCI), 48 h

`Cc1sc2nc(N(C)C)oc(=O)c2c1C` and `N=c1c2ccccc2nc2oc3cc([N+](=O)[O-])ccc3n12` cannot be ordered by TGI: greater than 100 µM for the first, greater than 100 µM for the second.

Going from `CC(C)OC(=O)c1ccc(NCC2=CC(=O)C=CC2=O)cc1` to `CC(C)C[C@H]1[C@@H](OCc2ccccc2)COS(=O)(=O)N1[C@H](C)c1ccccc1`, the TGI rises from 26.2 µM to greater than 100 µM.

`O=C1c2ccccc2-c2nnc(-c3ccc([N+](=O)[O-])cc3)cc21` and `Cn1c(-c2cccs2)cc(-c2cccs2)c1-c1cccs1` cannot be ordered by TGI: greater than 10 µM for the first, greater than 100 µM for the second.

First: CCOC(=O)CC[C@H](N)C(=O)N[C@@H](Cc1ccc(N(CCCl)CCCl)cc1)C(=O)OCC
Second: O=C(CSc1ncccn1)N/N=C/c1ccccc1OCc1ccccc1
The TGI of the first is lower: 1.41 µM for the first, greater than 100 µM for the second.

test system: CAKI-1 renal; test: growth of human tumour cells (NCI), 48 h

`Cc1sc2nc(N(C)C)oc(=O)c2c1C` and `N=c1c2ccccc2nc2oc3cc([N+](=O)[O-])ccc3n12` cannot be ordered by TGI: greater than 100 µM for the first, greater than 100 µM for the second.

Going from `CC(C)OC(=O)c1ccc(NCC2=CC(=O)C=CC2=O)cc1` to `CC(C)C[C@H]1[C@@H](OCc2ccccc2)COS(=O)(=O)N1[C@H](C)c1ccccc1`, the TGI rises from 11.1 µM to greater than 100 µM.

`O=C1c2ccccc2-c2nnc(-c3ccc([N+](=O)[O-])cc3)cc21` and `Cn1c(-c2cccs2)cc(-c2cccs2)c1-c1cccs1` cannot be ordered by TGI: greater than 10 µM for the first, greater than 100 µM for the second.

Compared with `CCOC(=O)CC[C@H](N)C(=O)N[C@@H](Cc1ccc(N(CCCl)CCCl)cc1)C(=O)OCC`, `O=C(CSc1ncccn1)N/N=C/c1ccccc1OCc1ccccc1` is higher in TGI: 4.39 µM for the first, greater than 100 µM for the second.

test system: UACC-62 melanoma; test: growth of human tumour cells (NCI), 48 h

`Cc1sc2nc(N(C)C)oc(=O)c2c1C` and `N=c1c2ccccc2nc2oc3cc([N+](=O)[O-])ccc3n12` cannot be ordered by TGI: greater than 100 µM for the first, greater than 100 µM for the second.

Compared with `CC(C)OC(=O)c1ccc(NCC2=CC(=O)C=CC2=O)cc1`, `CC(C)C[C@H]1[C@@H](OCc2ccccc2)COS(=O)(=O)N1[C@H](C)c1ccccc1` is higher in TGI: 31.4 µM for the first, greater than 100 µM for the second.

`O=C1c2ccccc2-c2nnc(-c3ccc([N+](=O)[O-])cc3)cc21` and `Cn1c(-c2cccs2)cc(-c2cccs2)c1-c1cccs1` cannot be ordered by TGI: greater than 10 µM for the first, greater than 100 µM for the second.

Compared with `CCOC(=O)CC[C@H](N)C(=O)N[C@@H](Cc1ccc(N(CCCl)CCCl)cc1)C(=O)OCC`, `O=C(CSc1ncccn1)N/N=C/c1ccccc1OCc1ccccc1` is 27-fold higher in TGI: 1.84 µM for the first, 50.4 µM for the second.

test system: SR leukemia; test: growth of human tumour cells (NCI), 48 h

`Cc1sc2nc(N(C)C)oc(=O)c2c1C` and `N=c1c2ccccc2nc2oc3cc([N+](=O)[O-])ccc3n12` cannot be ordered by TGI: greater than 100 µM for the first, greater than 100 µM for the second.

Going from `CC(C)OC(=O)c1ccc(NCC2=CC(=O)C=CC2=O)cc1` to `CC(C)C[C@H]1[C@@H](OCc2ccccc2)COS(=O)(=O)N1[C@H](C)c1ccccc1`, the TGI rises from 8.37 µM to greater than 83.7 µM.

`O=C1c2ccccc2-c2nnc(-c3ccc([N+](=O)[O-])cc3)cc21` and `Cn1c(-c2cccs2)cc(-c2cccs2)c1-c1cccs1` cannot be ordered by TGI: greater than 10 µM for the first, greater than 100 µM for the second.

First: CCOC(=O)CC[C@H](N)C(=O)N[C@@H](Cc1ccc(N(CCCl)CCCl)cc1)C(=O)OCC
Second: O=C(CSc1ncccn1)N/N=C/c1ccccc1OCc1ccccc1
The TGI of the first is higher: greater than 42.2 µM for the first, 29.5 µM for the second.

test system: OVCAR-5 ovarian; test: growth of human tumour cells (NCI), 48 h

`Cc1sc2nc(N(C)C)oc(=O)c2c1C` and `N=c1c2ccccc2nc2oc3cc([N+](=O)[O-])ccc3n12` cannot be ordered by TGI: greater than 100 µM for the first, greater than 100 µM for the second.

First: CC(C)OC(=O)c1ccc(NCC2=CC(=O)C=CC2=O)cc1
Second: CC(C)C[C@H]1[C@@H](OCc2ccccc2)COS(=O)(=O)N1[C@H](C)c1ccccc1
The TGI of the first is lower: 38.9 µM for the first, greater than 100 µM for the second.

`O=C1c2ccccc2-c2nnc(-c3ccc([N+](=O)[O-])cc3)cc21` and `Cn1c(-c2cccs2)cc(-c2cccs2)c1-c1cccs1` cannot be ordered by TGI: greater than 10 µM for the first, greater than 100 µM for the second.

Compared with `CCOC(=O)CC[C@H](N)C(=O)N[C@@H](Cc1ccc(N(CCCl)CCCl)cc1)C(=O)OCC`, `O=C(CSc1ncccn1)N/N=C/c1ccccc1OCc1ccccc1` is higher in TGI: 6.78 µM for the first, greater than 100 µM for the second.

test system: RXF 393 renal; test: growth of human tumour cells (NCI), 48 h

Compared with `Cc1sc2nc(N(C)C)oc(=O)c2c1C`, `N=c1c2ccccc2nc2oc3cc([N+](=O)[O-])ccc3n12` is lower in TGI: greater than 100 µM for the first, 32.5 µM for the second.

Compared with `CC(C)OC(=O)c1ccc(NCC2=CC(=O)C=CC2=O)cc1`, `CC(C)C[C@H]1[C@@H](OCc2ccccc2)COS(=O)(=O)N1[C@H](C)c1ccccc1` is higher in TGI: 26.2 µM for the first, greater than 100 µM for the second.

`O=C1c2ccccc2-c2nnc(-c3ccc([N+](=O)[O-])cc3)cc21` and `Cn1c(-c2cccs2)cc(-c2cccs2)c1-c1cccs1` cannot be ordered by TGI: greater than 10 µM for the first, greater than 100 µM for the second.

Going from `CCOC(=O)CC[C@H](N)C(=O)N[C@@H](Cc1ccc(N(CCCl)CCCl)cc1)C(=O)OCC` to `O=C(CSc1ncccn1)N/N=C/c1ccccc1OCc1ccccc1`, the TGI rises from 2.14 µM to 55.6 µM (26-fold).

test system: SNB-19 CNS; test: growth of human tumour cells (NCI), 48 h

`Cc1sc2nc(N(C)C)oc(=O)c2c1C` and `CC(C)OC(=O)c1ccc(NCC2=CC(=O)C=CC2=O)cc1` cannot be ordered by TGI: greater than 100 µM for the first, greater than 100 µM for the second.

`CC(C)C[C@H]1[C@@H](OCc2ccccc2)COS(=O)(=O)N1[C@H](C)c1ccccc1` and `O=C1c2ccccc2-c2nnc(-c3ccc([N+](=O)[O-])cc3)cc21` cannot be ordered by TGI: greater than 100 µM for the first, greater than 10 µM for the second.
